Assay results reported in ChEMBL document CHEMBL1201862, “PubChem BioAssay data set” (2004).
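Assay format: 96-well plates, 48-hour exposure. GI50 marks 50% less growth.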 Active and inactive are the calls of the source. Rule as the data show it: active = GI50 up to about 1.1 µM and inactive = higher.

Legend:
Assay in all cases: DTP human tumour cell line panel, 48 h
NCI-H23 = tested on: NCI-H23
PC-3 = tested on: PC-3
CCRF-CEM = tested on: CCRF-CEM
HL-60 = tested on: HL-60
KM12 = tested on: KM12
IGROV-1 = tested on: IGROV-1
MCF7 = tested on: MCF7
SK-MEL-2 = tested on: SK-MEL-2
HOP-62 = tested on: HOP-62
SR = tested on: SR
A549 = tested on: A549
DU-145 = tested on: DU-145
MDA-N = tested on: MDA-N
UO-31 = tested on: UO-31
M14 = tested on: M14
UACC-62 = tested on: UACC-62
SK-OV-3 = tested on: SK-OV-3
OVCAR-4 = tested on: OVCAR-4
MDA-MB-435 = tested on: MDA-MB-435
SNB-75 = tested on: SNB-75
CAKI-1 = tested on: CAKI-1
LOX IMVI = tested on: LOX IMVI
SF-268 = tested on: SF-268
NCI-H226 = tested on: NCI-H226
NCI-H460 = tested on: NCI-H460
TK-10 = tested on: TK-10
786-0 = tested on: 786-0
ACHN = tested on: ACHN
Hs-578T = tested on: Hs-578T
OVCAR-5 = tested on: OVCAR-5
HCT-116 = tested on: HCT-116
UACC-257 = tested on: UACC-257
K562 = tested on: K562
SF-539 = tested on: SF-539
OVCAR-3 = tested on: OVCAR-3
MDA-MB-231 = tested on: MDA-MB-231
Malme-3M = tested on: Malme-3M
T47D = tested on: T47D
COLO 205 = tested on: COLO 205
NCI/ADR-RES = tested on: NCI/ADR-RES
U-251 = tested on: U-251
SK-MEL-28 = tested on: SK-MEL-28
EKVX = tested on: EKVX
SN12C = tested on: SN12C
OVCAR-8 = tested on: OVCAR-8
MOLT-4 = tested on: MOLT-4
NCI-H522 = tested on: NCI-H522
HCT-15 = tested on: HCT-15
SNB-19 = tested on: SNB-19
SF-295 = tested on: SF-295
RPMI-8226 = tested on: RPMI-8226
SW-620 = tested on: SW-620
SK-MEL-5 = tested on: SK-MEL-5
HOP-92 = tested on: HOP-92
HT-29 = tested on: HT-29
A498 = tested on: A498

CC(C)(Br)C(=O)/C=C/c1ccccc1
GI50 (NCI-H23): 1.94 µM (inactive)
GI50 (PC-3): 7.69 µM (inactive)
GI50 (CCRF-CEM): 0.22 µM (active)
GI50 (HL-60): 3.91 µM (inactive)
GI50 (KM12): 13.1 µM (inactive)
GI50 (IGROV-1): 0.581 µM (active)
GI50 (MCF7): 3.56 µM (inactive)
GI50 (SK-MEL-2): 1.83 µM (inactive)
GI50 (HOP-62): 4.58 µM (inactive)
GI50 (SR): 1.98 µM (inactive)
GI50 (A549): 14.8 µM (inactive)
GI50 (DU-145): 5.71 µM (inactive)
GI50 (MDA-N): 3.5 µM (inactive)
GI50 (UO-31): 1.84 µM (inactive)
GI50 (M14): 1.56 µM (inactive)
GI50 (UACC-62): 5.73 µM (inactive)
GI50 (SK-OV-3): 25.6 µM (inactive)
GI50 (OVCAR-4): 2.3 µM (inactive)
GI50 (MDA-MB-435): 5.46 µM (inactive)
GI50 (SNB-75): 16.1 µM (inactive)
GI50 (CAKI-1): 6.12 µM (inactive)
GI50 (LOX IMVI): 1.32 µM (inactive)
GI50 (SF-268): 10.6 µM (inactive)
GI50 (NCI-H226): 5 µM (inactive)
GI50 (NCI-H460): 16.3 µM (inactive)
GI50 (TK-10): 10.6 µM (inactive)
GI50 (786-0): 0.485 µM (active)
GI50 (ACHN): 2.55 µM (inactive)
GI50 (Hs-578T): 11.5 µM (inactive)
GI50 (OVCAR-5): 6.56 µM (inactive)
GI50 (HCT-116): 0.625 µM (active)
GI50 (UACC-257): 14.1 µM (inactive)
GI50 (K562): 1.55 µM (inactive)
GI50 (SF-539): 8.13 µM (inactive)
GI50 (OVCAR-3): 8.17 µM (inactive)
GI50 (MDA-MB-231): 8.79 µM (inactive)
GI50 (Malme-3M): 2.62 µM (inactive)
GI50 (T47D): 2.47 µM (inactive)
GI50 (COLO 205): 8.24 µM (inactive)
GI50 (NCI/ADR-RES): 17.6 µM (inactive)
GI50 (U-251): 6.95 µM (inactive)
GI50 (SK-MEL-28): 14.9 µM (inactive)
GI50 (EKVX): 7.62 µM (inactive)
GI50 (SN12C): 6.21 µM (inactive)
GI50 (OVCAR-8): 2.13 µM (inactive)
GI50 (MOLT-4): 1.41 µM (inactive)
GI50 (NCI-H522): 0.136 µM (active)
GI50 (HCT-15): 1.97 µM
GI50 (SNB-19): 22 µM (inactive)
GI50 (SF-295): 16.8 µM (inactive)
GI50 (RPMI-8226): 0.925 µM (active)
GI50 (SW-620): 2.39 µM (inactive)
GI50 (SK-MEL-5): 11.6 µM (inactive)
GI50 (HOP-92): 4.35 µM (inactive)
GI50 (HT-29): 4.23 µM (inactive)
GI50 (A498): 18.7 µM (inactive)
